In US20260166021A1, “POLYMORPHIC FORMS OF A SOLUBLE EPOXIDE HYDROLASE INHIBITOR AND FORMULATIONS THEREOF” (EicOsis, LLC, priority 2022, published 2026):
Converted amounts (≈) assume the structure as drawn.

Columns and labels:
Assay type in all cases: physicochemical
[1] = PEG-stability analyses: Form C/Form D mixture slurried in PEG300 with water
Method: Of particular interest was whether Form D would convert to a hydrate (e.g., Form C) in the presence of water. To investigate the critical water concentration for phase interconversion between Pattern C and D, a series experiments were designed (as summarized in TABLE 16). A 1:1 mixture of Forms C and D was prepared and slurried in PEG 300 with different levels of water concentrations. Phase transformations were monitored with XRD, and are summarized in FIG. 85, which (from top to bottom) provides XRD of Form C, Form D, the mixture following incubation in PEG300 containing 75% water, the mixture following incubation in PEG300 containing 50% water, the mixture following incubation in PEG300 containing 25% water, the mixture following incubation in PEG300 containing 10% water, and the mixture following incubation in PEG300 containing 5% water. […] Form D is the stable form in PEG300 with less than 50% water.

[2] = Competitive slurry experiments (solvent-mediated polymorph transformation, XRD); details: room temperature, water, MTBE or n-heptane, 1 and 7 days, listed as Pattern C
Method: Polymorph stability and interconversions were analyzed with competitive slurry experiments. The competitive slurry (solvent-mediated transformation) experiments were performed on Forms A, B, D, E, F, G, and I generated through scaled-up crystallization (summarized in TABLE 11). […] The suspensions were aliquoted at one day and seven days and filtered to isolate the solids. Remaining solid was analyzed by XRD without drying.
In FIG. 66, the second spectrum from the top corresponds to Form E. These XRD data confirmed that Patterns C, K, and D were afforded in these solvents.
In order to further confirm the rank of stability order of the selected forms and extend the temperature range of stability relationship up to 70° C. covering potential API process conditions, binary form slurries were conducted with starting mixtures of (1) Forms A and D, and (2) Forms D and E. The resultant polymorphs were characterized with XRD after 1 and 7 days, the results of which analyses are shown in FIGURE S 67-68 and summarized in TABLE 13. Pattern D stood out from both binary mixture slurries of A & D and of D & E after seven-day stirring at the elevated temperature.
Additional single form slurry experiments were conducted on Forms A, D, and E in either water or heptane at room temperature. […] In agreement with prior competitive slurry experiments, Form D was stable at room temperature in n-heptane. Pattern E was obtained from slurries starting with Forms A and E in n-heptane. As expected, Form C was formed from the Pattern E slurry in water.

[3] = Thermal stress studies at 60° C. (XRD, HPLC); details: incubated at 60° C., in less than 1 day
Method: Briefly, 20 mg of solid Form A, B, C, D, E, F, G, and I were weighed into 7 mL glass vials. The vials were covered with tissue and stored in ovens set to 60° C. and ambient pressure. Following 1 and 7 days incubation, solid was collected for XRD analysis.
As shown in these figures, Forms B and C converted to Forms D and A, respectively, while the other forms remained unchanged.
The starting materials, intermediates (1 day of thermal stress), and products (7 days of thermal stress) were analyzed by H PLC. Representative chromatograms from the Form D thermal stress analyses are shown in FIGS. 81-83 (starting material, 1 day, and 7 day samples, respectively).

[4] = Solubility of Form C in binary solvent systems (TABLE 22)
[5] = Equilibrium-solubility screening in solvents and excipients
Method: For these analyses, Form D or Form C was mixed with 0.5 or 1.0 mL of solvents and equilibrated for approximately 24 hours. The mixture was filtered through 0.45 μm centrifuge filters.
As expected, the compound was not easily ionized at physiologically relevant pH. […] In addition, these excipients included surfactants, co-solvents, and lipids which are amenable for use in self-emulsifying drug delivery systems (SEDDS). The XRD pattern of the starting material was maintained for each sample after equilibrium.

[6] = Supersaturation monitoring in PEG 300; details: PEG 300 (0.5 mL)
[7] = Moisture-sorption analysis (DVS); details: dynamic vapor sorption
Method: Gravimetric moisture sorption experiment was performed on all materials by first holding the sample at 40% RH and 25° C. until an equilibrium weight was reached or for a maximum of 4 h. The sample was then subjected to an isothermal (25° C.) adsorption scan from 40% to 90% R H in steps of 10% RH. The sample was allowed to equilibrate to an asymptotic weight at each point for a maximum of 4 h. Following adsorption, a desorption scan from 90% to 0% RH (at 25° C.) was run in steps of −10% R H allowing a maximum of 4 h for equilibration to an asymptotic weight. An adsorption scan was then performed from 0% RH to 40% RH in steps of +10% R H. The sample was then dried for more than 2 h at 60° C. 0% R H and the resulting solid analyzed by XRD.
FIGS. 88-92 provide physical analyses of lot 1. […] FIG. 90 provides a modulated DSC thermogram of lot 1, and identifies a glass transition temperature midpoint of around 48.5° C. […] FIG. 92 provides dynamic vapor sorption plots of lot 1, indicating 2.49 weight percent water vapor adsorption at 90% relative humidity, 1.25 weight percent water vapor adsorption at 60% relative humidity, and close to complete water vapor desorption at 0% relative humidity.
FIG. 95 provides polarized-light microscope images of lot 2 at 200× magnification, with 50 and 100 μm scales shown. […] FIG. 96 provides dynamic vapor sorption plots of lot 2, indicating 3.99 weight percent water vapor adsorption at 60% relative humidity, 4.12 weight percent water vapor adsorption at 90% relative humidity, and close to complete water vapor desorption at 0% relative humidity.

[8] = Differential scanning calorimetry (DSC): heat of fusion, thermal events; details: DSC thermogram of lot
Method: Differential scanning calorimetry analyses were performed on each sample “as is.” Unless otherwise specified, samples were weighed in an aluminum pan, covered with a pierced lid, and then crimped and analyzed from 30-300° C. ramped at 10° C./min.
The DSC data were used to determine the heat of fusion for Forms A, B, D, and F, based on their heats of fusion as measured during conversion from Form C.

[9] = Particle size analysis (Malvern particle sizer, dry method; optical microscopy); details: for Size range / birefringence / crystal shape: polarized-light microscopic images
Method: Particle size was first analyzed with optical microscopy.
Particle size was also analyzed with a dry-method using a Malvern 300 particle sizer equipped with a standard energy venturi and utilizing 2.5 bar, 3.0 bar, and 3.5 bar air pressure. […] One possible explanation is that the insufficient energy was provided to break up particle agglomerations.
Based on these findings, particle size analysis was repeated at 2.5, 3.0, and 3.5 bar using a higher energy venturi to ensure the break-up of the potential agglomerates. The detailed particle sizing data using high-energy venturi are summarized in TABLE 26 and in FIGS. 114-119, with FIGS. 114-116 corresponding to 2.5, 3.0, and 3.5 bar analyses of unmilled Form D and FIGS. 117-119 corresponding to 2.5, 3.0, and 3.5 bar analyses of micronized Form D, respectively. While the data remained bimodal, indicating incomplete break-up of particle agglomerates, the D90 of micronized material measured below 6 μm, in closer agreement with the optical analyses.

[10] = Thermal gravimetric analysis (TGA); details: TGA thermogram of lot
Method: Thermal gravimetric analyses were performed on each sample “as is.” Unless otherwise noted, samples were weighed in an alumina crucible and analyzed from 30-350° C. at 10° C./min.
Form C weight loss at 39° C.-50° C. likely reflected methanol loss.

[11] = Bulk and tapped density (tap density tester); details: listed as micronixed form
Source text: Before milling, Form D was screened through a 30-micron mesh sieve. Then, Form D micronized using a 2-inch jet mill 70 psig feed pressure, 40 psig grinding pressure, and a 4.3 g/min powder feed rate. The micronization process provided a 69% yield and 95.6% crystallinity relative to the unmilled material.

Structure (SMILES): CC[C@H](C)C(=O)N1CCC(NC(=O)Nc2ccc(OC(F)(F)F)c(F)c2)CC1 [C (50%) + D (50%)]
- XRD Pattern at Equilibrium ([1]; H2O:PEG 300 = 50%:50%): C (major) + D (minor)

Structure (SMILES): CC[C@H](C)C(=O)N1CCC(NC(=O)Nc2ccc(OC(F)(F)F)c(F)c2)CC1 [Form C, (S)-1-(3-fluoro-4-(trifluoromethoxy)phenyl)-3-(1-(2-methylbutanoyl)piperidin-4-yl)urea]
- polymorph stability in competitive slurry [2]: unstable hydrate
- conversion to Form A [3]: 100%
- stable form in PEG300 with 50% or higher water content ([1]; 1:1 mixture of Forms C and D slurried in PEG300, XRD): more stable
- solubility ([4]; IPA/n-heptane, ratio of n-heptane to primary 21.3, organic solvent or mixture): 5 mg/mL
- solubility ([4]; ethanol/n-heptane, organic solvent or mixture, EtOH, ratio of n-heptane to primary 7.7 (1st test point)): 38 mg/mL
- solubility ([4]; ethanol/n-heptane, organic solvent or mixture, EtOH, ratio of n-heptane to primary 13.2 (2nd test point)): 10 mg/mL
- solubility ([4]; ethyl acetate/n-heptane, organic solvent or mixture, EtoAC, ratio of n-heptane to primary 1.4 (1st test point)): 7 mg/mL
- solubility ([4]; ethyl acetate/n-heptane, organic solvent or mixture, EtoAC, ratio of n-heptane to primary 2.0 (2nd test point)): 4 mg/mL
- solubility ([4]; ethyl acetate/n-heptane, organic solvent or mixture, EtoAC, ratio of n-heptane to primary 2.2 (3rd test point)): 3 mg/mL
- solubility ([4]; organic solvent or mixture, IPA, ratio of n-heptane to primary 13.3 (1st test point)): 30 mg/mL
- solubility ([4]; organic solvent or mixture, IPA, ratio of n-heptane to primary 13.9 (2nd test point)): 10 mg/mL
- solubility ([4]; organic solvent or mixture, MEK, ratio of n-heptane to primary 2.0 (1st test point)): 11 mg/mL
- solubility ([4]; organic solvent or mixture, MEK, ratio of n-heptane to primary 3.0 (2nd test point)): 5 mg/mL
- solubility ([4]; organic solvent or mixture, MEK, ratio of n-heptane to primary 3.4 (3rd test point)): 4 mg/mL
- XRD Pattern At Equilibrium ([5]; PEG 300, 50%): Form C
- solubility thermodynamic at 24 h ([5]; PEG 300, 50%, aqueous with cosolvent or surfactant or cyclodextrin, thermodynamic from solid): 0.8 mg/mL (≈ 1970 µM)
- Equilibrium Solubility ([5]; PEG 300, 100%): 16.7 mg/mL
- XRD Pattern At Equilibrium ([5]; PEG 300, 100%): Form D
- Equilibrium Solubility ([5]; PEG 400, 50%): 0.4 mg/mL
- XRD Pattern At Equilibrium ([5]; PEG 400, 50%): Form C
- Equilibrium Solubility ([5]; PEG 400, 100%): 17.9 mg/mL
- XRD Pattern At Equilibrium ([5]; PEG 400, 100%): Form D
- Step → Observation ([6]; 100 mg/mL, 1. RT stirring for 1 hr, listed as Pattern C): 1. RT stirring for 1 hr →suspension
- Step → Observation ([6]; 100 mg/mL, 2. 40 C. heating for 0.5 hr, listed as Pattern C): 2. 40 °C heating for 0.5 hr →clear solution
- Step → Observation ([6]; 100 mg/mL, 3. RT storage for ~8 days, listed as Pattern C): 3. RT storage for ~8 days →clear solution
- Step → Observation ([6]; 100 mg/mL, 4. RT storage for ~9 days, listed as Pattern C): 4. RT storage for ~9 days →precipitation
- Step → Observation ([6]; 200 mg/mL, 1. RT stirring for 1 hr): 1. RT stirring for 1 hr →suspension
- Step → Observation ([6]; 200 mg/mL, 2. 40 C. heating for 48 hr, listed as Pattern C): 2. 40 °C heating for 48 hr →suspension
- Step → Observation ([6]; 200 mg/mL, 3. 55 C. heating for <16 hr): 3. 55 C. heating for <16 hr →clear solution
- Step → Observation ([6]; 200 mg/mL, 4. RT storage for <3.5 days): 4. RT storage for <3.5 days →precipitation
- Step → Observation ([6]; 200 mg/mL, 5. 55 C. reheating for overnight): 5. 55 C. reheating for overnight →clear solution
- Step → Observation ([6]; 200 mg/mL, 6. RT storage for overnight): 6. RT storage for overnight →precipitation

Structure (SMILES): CC[C@H](C)C(=O)N1CCC(NC(=O)Nc2ccc(OC(F)(F)F)c(F)c2)CC1 [lot 1]
- water vapor adsorption at 60% RH [7]: 60% RH 1.25 wt %
- water vapor adsorption at 90% RH [7]: 90% RH 2.49 wt %
- Endotherm (likely dehydration of bound water) [8]: 63 °C
- Exotherm (crystallization of Form B) [8]: 115 °C (crystallization of
- Size range [9]: Size range; 5-80 μm;
- birefringence [9]: Birefringent
- crystal shape [9]: Irregular plate;
- wt change at 233° C. [10]: 99% wt change
- wt change below 100° C. [10]: 0% wt change

Structure (SMILES): CC[C@H](C)C(=O)N1CCC(NC(=O)Nc2ccc(OC(F)(F)F)c(F)c2)CC1 [lot 2]
- water vapor adsorption at 60% RH [7]: 60% RH 3.99 wt %
- water vapor adsorption at 90% RH [7]: 90% RH 4.12 wt %
- Endotherm (likely dehydration of bound water) [8]: 79 °C (likely dehydration of
- Endotherm (melting of Form A) [8]: 111 °C (melting of Form A),
- Exotherm (crystallization of Form B) [8]: 117 °C (crystallization of
- Size range [9]: Size range; 5-200 μm;
- birefringence [9]: Birefringent
- crystal shape [9]: Irregular plate;
- wt change at 233° C. [10]: 96% wt change
- wt change below 100° C. [10]: 2.9% wt change

Structure (SMILES): CC[C@H](C)C(=O)N1CCC(NC(=O)Nc2ccc(OC(F)(F)F)c(F)c2)CC1 [micronized Form D, (S)-1-(3-fluoro-4-(trifluoromethoxy)phenyl)-3-(1-(2-methylbutanoyl)piperidin-4-yl)urea]
- bulk density [11]: 0.20 g/mL
- tapped density [11]: 0.22 g/mL
- D90 particle size ([9]; higher energy venturi, 2.5, 3.0 and 3.5 bar): below 6 μm
